Laboratory results reported in ChEMBL document CHEMBL3885881, “DrugMatrix”.

Organism: Rattus norvegicus
Test: DrugMatrix - Regimen: Daily Repeat
Assay type: toxicity, organism-based, Sprague-Dawley
Design: regimen Daily Repeat, gender Male, age 6-8 weeks
Details: in vivo, po, route oral GAVAGE, […]; for ABSOLUTE BASOPHIL / ABSOLUTE EOSINOPHIL / ABSOLUTE LYMPHOCYTE / ABSOLUTE MONOCYTE / ABSOLUTE SEGMENTED NEUTROPHIL / BASOPHIL / EOSINOPHIL / ERYTHROCYTE COUNT / HEMATOCRIT / HEMOGLOBIN / LEUKOCYTE COUNT / LYMPHOCYTE / MEAN CORPUSCULAR HEMOGLOBIN / MEAN CORPUSCULAR HEMOGLOBIN CONCENTRATION / MEAN CORPUSCULAR VOLUME / MONOCYTE / NEUTROPHIL / NUCLEATED RED BLOOD CELLS / PLATELET COUNT: tissue Blood; for ALANINE AMINOTRANSFERASE / ALBUMIN / ALKALINE PHOSPHATASE / ASPARTATE AMINOTRANSFERASE / BLOOD UREA NITROGEN / CARBON DIOXIDE / CHLORIDE / CHOLESTEROL / CREATINE PHOSPHOKINASE / CREATININE / GLUCOSE / LACTATE DEHYDROGENASE / LIPASE / PHOSPHORUS / POTASSIUM / SODIUM / TOTAL BILIRUBIN / TOTAL PROTEIN / URIC ACID: tissue Plasma
[1] = 0 mg/kg, 72 h, dose level Control, time 3 day
[2] = 0 mg/kg, 120 h, dose level Control, time 5 day
[3] = 5 mg/kg, 72 h, dose level Low, time 3 day

With `O=C(Nc1ccc(Cl)c(Cl)c1)c1cc(Cl)cc(Cl)c1O` [3,3',4',5-TETRACHLOROSALICYLANILIDE] the “ABSOLUTE BASOPHIL” value [1] was 0 CELLS/uL, the “ABSOLUTE EOSINOPHIL” value [1] was 0 CELLS/uL and the “ABSOLUTE LYMPHOCYTE” value [1] was 11091.17 CELLS/uL. The “ABSOLUTE MONOCYTE” value [1] was 172.17 CELLS/uL, the “ABSOLUTE SEGMENTED NEUTROPHIL” value [1] was 1186.67 CELLS/uL and the BASOPHIL [1] was 0%. The EOSINOPHIL [1] was 0%, the “ERYTHROCYTE COUNT” value [1] was 5.87 x10E6/uL and the HEMATOCRIT [1] was 36.87%. For the same molecule, the HEMOGLOBIN [1] was 14.03 G/DL, the “LEUKOCYTE COUNT” value [1] was 12.45 x10E3/uL and the LYMPHOCYTE [1] was 88.67%. The “MEAN CORPUSCULAR HEMOGLOBIN” value [1] was 23.93 pg, the “MEAN CORPUSCULAR HEMOGLOBIN CONCENTRATION” value [1] was 38.1 G/DL and the “MEAN CORPUSCULAR VOLUME” value [1] was 62.73 fL. For the same molecule, the MONOCYTE [1] was 1.5%, the NEUTROPHIL [1] was 9.83% and the “NUCLEATED RED BLOOD CELLS” value [1] was 0 /100WBC. The “PLATELET COUNT” value [1] was 1150.33 x10E3/uL, the “ALANINE AMINOTRANSFERASE” value [1] was 67.17 u/L and the ALBUMIN [1] was 4.03 G/DL. The “ALKALINE PHOSPHATASE” value [1] was 462.5 u/L, the “ASPARTATE AMINOTRANSFERASE” value [1] was 88 u/L and the “BLOOD UREA NITROGEN” value [1] was 13.17 mg/dL. The “CARBON DIOXIDE” value [1] was 29.33 mmol/L, the CHLORIDE [1] was 101 MEQ/L and the CHOLESTEROL [1] was 69.17 mg/dL. The “CREATINE PHOSPHOKINASE” value [1] was 292.5 u/L, the CREATININE [1] was 0.17 mg/dL and the GLUCOSE [1] was 167.5 mg/dL. The “LACTATE DEHYDROGENASE” value [1] was 198.5 u/L, the LIPASE [1] was 10.67 u/L and the PHOSPHORUS [1] was 11.73 mg/dL. The POTASSIUM [1] was 5.91 MEQ/L, the SODIUM [1] was 143.3 MEQ/L and the “TOTAL BILIRUBIN” value [1] was 0.18 mg/dL. The “TOTAL PROTEIN” value [1] was 5.7 G/DL, the “URIC ACID” value [1] was 1.3 mg/dL and the “ABSOLUTE BASOPHIL” value [2] was 0 CELLS/uL. For the same molecule, the “ABSOLUTE EOSINOPHIL” value [2] was 64.33 CELLS/uL, the “ABSOLUTE LYMPHOCYTE” value [2] was 12494.67 CELLS/uL and the “ABSOLUTE MONOCYTE” value [2] was 117 CELLS/uL. For the same molecule, the “ABSOLUTE SEGMENTED NEUTROPHIL” value [2] was 1340.67 CELLS/uL, the BASOPHIL [2] was 0% and the EOSINOPHIL [2] was 0.33%. The “ERYTHROCYTE COUNT” value [2] was 5.82 x10E6/uL, the HEMATOCRIT [2] was 36.97% and the HEMOGLOBIN [2] was 14.18 G/DL. For the same molecule, the “LEUKOCYTE COUNT” value [2] was 14.02 x10E3/uL, the LYMPHOCYTE [2] was 89% and the “MEAN CORPUSCULAR HEMOGLOBIN” value [2] was 24.42 pg. For the same molecule, the “MEAN CORPUSCULAR HEMOGLOBIN CONCENTRATION” value [2] was 38.4 G/DL, the “MEAN CORPUSCULAR VOLUME” value [2] was 63.52 fL and the MONOCYTE [2] was 0.83%. For the same molecule, the NEUTROPHIL [2] was 9.83%, the “NUCLEATED RED BLOOD CELLS” value [2] was 0 /100WBC and the “PLATELET COUNT” value [2] was 1097.83 x10E3/uL. The “ALANINE AMINOTRANSFERASE” value [2] was 58.83 u/L, the ALBUMIN [2] was 3.92 G/DL and the “ALKALINE PHOSPHATASE” value [2] was 414.17 u/L. For the same molecule, the “ASPARTATE AMINOTRANSFERASE” value [2] was 89.17 u/L, the “BLOOD UREA NITROGEN” value [2] was 16.83 mg/dL and the “CARBON DIOXIDE” value [2] was 29.17 mmol/L. The CHLORIDE [2] was 100.33 MEQ/L, the CHOLESTEROL [2] was 54.5 mg/dL and the “CREATINE PHOSPHOKINASE” value [2] was 386.17 u/L. For the same molecule, the CREATININE [2] was 0.23 mg/dL, the GLUCOSE [2] was 184.17 mg/dL and the “LACTATE DEHYDROGENASE” value [2] was 229.17 u/L. It also gave an LIPASE [2] of 10.83 u/L, a PHOSPHORUS [2] of 10.88 mg/dL and a POTASSIUM [2] of 5.97 MEQ/L. For the same molecule, the SODIUM [2] was 142.2 MEQ/L, the “TOTAL BILIRUBIN” value [2] was 0.12 mg/dL and the “TOTAL PROTEIN” value [2] was 5.63 G/DL. For the same molecule, the “URIC ACID” value [2] was 1.55 mg/dL, the “ABSOLUTE BASOPHIL” value [3] was 0 CELLS/uL and the “ABSOLUTE EOSINOPHIL” value [3] was 173.67 CELLS/uL. For the same molecule, the “ABSOLUTE LYMPHOCYTE” value [3] was 11546 CELLS/uL, the “ABSOLUTE MONOCYTE” value [3] was 53.33 CELLS/uL and the “ABSOLUTE SEGMENTED NEUTROPHIL” value [3] was 1927 CELLS/uL. The BASOPHIL [3] was 0%, the EOSINOPHIL [3] was 1.33% and the “ERYTHROCYTE COUNT” value [3] was 5.84 x10E6/uL. The HEMATOCRIT [3] was 36.37%, the HEMOGLOBIN [3] was 14.03 G/DL and the “LEUKOCYTE COUNT” value [3] was 13.7 x10E3/uL. The LYMPHOCYTE [3] was 84%, the “MEAN CORPUSCULAR HEMOGLOBIN” value [3] was 24.03 pg and the “MEAN CORPUSCULAR HEMOGLOBIN CONCENTRATION” value [3] was 38.6 G/DL. The “MEAN CORPUSCULAR VOLUME” value [3] was 62.27 fL, the MONOCYTE [3] was 0.33% and the NEUTROPHIL [3] was 14.33%. The “NUCLEATED RED BLOOD CELLS” value [3] was 0 /100WBC, the “PLATELET COUNT” value [3] was 1088.67 x10E3/uL and the “ALANINE AMINOTRANSFERASE” value [3] was 64 u/L. The ALBUMIN [3] was 3.97 G/DL, the “ALKALINE PHOSPHATASE” value [3] was 434.67 u/L and the “ASPARTATE AMINOTRANSFERASE” value [3] was 108.33 u/L. The “BLOOD UREA NITROGEN” value [3] was 14 mg/dL, the “CARBON DIOXIDE” value [3] was 23 mmol/L and the CHLORIDE [3] was 102.33 MEQ/L. The CHOLESTEROL [3] was 66.33 mg/dL, the “CREATINE PHOSPHOKINASE” value [3] was 588 u/L and the CREATININE [3] was 0.19 mg/dL. For the same molecule, the GLUCOSE [3] was 171.67 mg/dL, the “LACTATE DEHYDROGENASE” value [3] was 260 u/L and the LIPASE [3] was 9.67 u/L. The PHOSPHORUS [3] was 12.87 mg/dL, the POTASSIUM [3] was 6.31 MEQ/L and the SODIUM [3] was 141.93 MEQ/L. For the same molecule, the “TOTAL BILIRUBIN” value [3] was 0.13 mg/dL, the “TOTAL PROTEIN” value [3] was 5.57 G/DL and the “URIC ACID” value [3] was 1.83 mg/dL.
